Experimental data published in patent US6677310B1, “Ring-expanded nucleosides and nucleotides” (Nabi, priority 1999, dated 2004).

Columns and labels:
Assay type in all cases: cell-based, human
[1] = system: COLO 205; experiment: SRB anti-cancer assay, Colon Cancer; conditions: COLO 205 (Colon Cancer), 48 h
[2] = system: HCC-2998; experiment: SRB anti-cancer assay, Colon Cancer; conditions: HCC-2998 (Colon Cancer), 48 h; for CC50: read-out: LC50 (the source's name)
[3] = system: SNB-19; experiment: SRB anti-cancer assay, CNS Cancer; conditions: SNB-19 (CNS Cancer), 48 h; for CC50: read-out: LC50 (the source's name)
[4] = system: NCI/ADR-RES; experiment: SRB anti-cancer assay, Breast Cancer; conditions: 48 h; for CC50: read-out: LC50 (the source's name)
[5] = system: OVCAR-3; experiment: SRB anti-cancer assay, Ovarian Cancer; conditions: OVCAR-3 (Ovarian Cancer), 48 h; for CC50: read-out: LC50 (the source's name)
[6] = system: KM12; experiment: SRB anti-cancer assay, Colon Cancer; conditions: 48 h
[7] = system: UACC-62; experiment: SRB anti-cancer assay, Melanoma; conditions: UACC-62 (Melanoma), 48 h; for CC50: read-out: LC50 (the source's name)
[8] = system: HCT-15; experiment: SRB anti-cancer assay, Colon Cancer; conditions: HCT-15 (Colon Cancer), 48 h; for CC50: read-out: LC50 (the source's name)
[9] = system: CAKI-1; experiment: SRB anti-cancer assay, Renal Cancer; conditions: CAKI-1 (Renal Cancer), 48 h; for CC50: read-out: LC50 (the source's name)
[10] = system: M14; experiment: SRB anti-cancer assay, Melanoma; conditions: 48 h; for CC50: read-out: LC50 (the source's name)
[11] = system: SW-620; experiment: SRB anti-cancer assay, Colon Cancer; conditions: SW-620 (Colon Cancer), 48 h; for CC50: read-out: LC50 (the source's name)
[12] = system: SNB-75; experiment: SRB anti-cancer assay, CNS Cancer; conditions: SNB-75 (CNS Cancer), 48 h
[13] = system: DU-145; experiment: SRB anti-cancer assay, Prostate Cancer; conditions: DU-145 (Prostate Cancer), 48 h; for CC50: read-out: LC50 (the source's name)
[14] = system: NCI-H460; conditions: NCI-H460 (Non-Small Cell Lung Cancer), 48 h; for CC50: read-out: LC50 (the source's name)
[15] = system: OVCAR-4; experiment: SRB anti-cancer assay, Ovarian Cancer; conditions: OVCAR-4 (Ovarian Cancer), 48 h; for CC50: read-out: LC50 (the source's name)
[16] = system: NCI-H23; conditions: NCI-H23 (Non-Small Cell Lung Cancer), 48 h; for CC50: read-out: LC50 (the source's name)
[17] = system: HOP-62; conditions: HOP-62 (Non-Small Cell Lung Cancer), 48 h
[18] = system: ACHN; experiment: SRB anti-cancer assay, Renal Cancer; conditions: 48 h; for CC50: read-out: LC50 (the source's name)
[19] = system: RPMI-8226; experiment: SRB anti-cancer assay, Leukemia; conditions: RPMI-8226 (Leukemia), 48 h; for CC50: read-out: LC50 (the source's name)
[20] = system: MALME-3M; experiment: SRB anti-cancer assay, Melanoma; conditions: MALME-3M (Melanoma), 48 h
[21] = system: SF-295; experiment: SRB anti-cancer assay, CNS Cancer; conditions: SF-295 (CNS Cancer), 48 h; for CC50: read-out: LC50 (the source's name)
[22] = system: A549/ATCC; conditions: A549/ATCC (Non-Small Cell Lung Cancer), 48 h; for CC50: read-out: LC50 (the source's name)
[23] = system: SK-MEL-28; experiment: SRB anti-cancer assay, Melanoma; conditions: SK-MEL-28 (Melanoma), 48 h
[24] = system: MDA-MB- 231/ATCC; experiment: SRB anti-cancer assay, Breast Cancer; conditions: MDA-MB- 231/ATCC (Breast Cancer), 48 h; for CC50: read-out: LC50 (the source's name)
[25] = system: NCI-H226; conditions: NCI-H226 (Non-Small Cell Lung Cancer), 48 h; for CC50: read-out: LC50 (the source's name)
[26] = system: EKVX; conditions: EKVX (Non-Small Cell Lung Cancer), 48 h; for CC50: read-out: LC50 (the source's name)
[27] = system: MDA-N; experiment: SRB anti-cancer assay, Breast Cancer; conditions: 48 h; for CC50: read-out: LC50 (the source's name)
[28] = system: SK-OV-3; experiment: SRB anti-cancer assay, Ovarian Cancer; conditions: SK-OV-3 (Ovarian Cancer), 48 h; for CC50: read-out: LC50 (the source's name)
[29] = system: CCRF-CEM; experiment: SRB anti-cancer assay, Leukemia; conditions: 48 h; for CC50: read-out: LC50 (the source's name)

## N=c1nc(N)c2ncn([C@@H]3O[C@H](CO)[C@@H](O)[C@H]3O)c2c(N)n1 [Compound 14-2, 4,8-Diamino-6H-6-imino-1-β-D-ribofuranosylimidazo[4,5-e][1,3]diazepine]
[1]
  GI50: 21 µM
  LC50: 63.4 µM
  TGI: 36.5 µM
[2]
  GI50: 16.4 µM
  TGI: 30.8 µM
  CC50: 58 µM
[3]
  GI50: 17.1 µM
  TGI: 51.5 µM
  CC50: > 100 µM
[4]
  GI50: 23.4 µM
  TGI: 67.6 µM
  CC50: > 100 µM
[5]
  GI50: 3.53 µM
  TGI: 13.2 µM
  CC50: 42.3 µM
[6]
  GI50: 18.6 µM
  LC50: > 100 µM
  TGI: 59.3 µM
[7]
  GI50: 2.88 µM
  TGI: 16.2 µM
  CC50: 56.3 µM
[8]
  GI50: 11.8 µM
  TGI: 27.4 µM
  CC50: 63.5 µM
[9]
  GI50: 20.3 µM
  TGI: 71 µM
  CC50: > 100 µM
[10]
  GI50: 11.5 µM
  TGI: 24.3 µM
  CC50: 51.1 µM
[11]
  GI50: 17.2 µM
  TGI: >100 µM
  CC50: > 100 µM
[12]
  GI50: 27.9 µM
  LC50 (concentration killing 50% of cells): > 100 µM
  TGI: 99.1 µM
[13]
  GI50: 15 µM
  TGI: 30.2 µM
  CC50: 60.7 µM
[14]
  GI50: 15.4 µM
  TGI: 31.4 µM
  CC50: 64.1 µM
[15]
  GI50: 16.7 µM
  TGI: 35.6 µM
  CC50: 76.1 µM
[16]
  GI50: 16.8 µM
  TGI: 33.4 µM
  CC50: 66.2 µM
[17]
  GI50: 28.5 µM
  LC50 (concentration for 50% net cell kill): > 100 µM
  TGI: >100 µM
[18]
  GI50: 12.3 µM
  TGI: 27.2 µM
  CC50: 59.9 µM
[19]
  GI50: 32.8 µM
  TGI: >100 µM
  CC50: > 100 µM
[20]
  GI50: 2.2 µM
  LC50: 25.3 µM
  TGI: 6.79 µM
[21]
  GI50: 24.7 µM
  TGI: 63.7 µM
  CC50: > 100 µM
[22]
  GI50: 22.3 µM
  TGI: 58.4 µM
  CC50: > 100 µM
[23]
  GI50: 25.4 µM
  LC50: > 100 µM
  TGI: 81.1 µM
[24]
  GI50: 23.8 µM
  TGI: 52.8 µM
  CC50: > 100 µM
[25]
  GI50: 33.2 µM
  TGI: >100 µM
  CC50: > 100 µM
[26]
  GI50: 14.3 µM
  TGI: 27.3 µM
  CC50: 52.3 µM
[27]
  GI50: 12.5 µM
  TGI: 26.1 µM
  CC50: 54.5 µM
[28]
  GI50: 51.8 µM
  TGI: >100 µM
  CC50: > 100 µM
[29]
  GI50: 59 µM
  TGI: >100 µM
  CC50: > 100 µM

## N=c1nc(N)c2ncn([C@@H]3O[C@H](COC(=O)c4ccccc4)[C@@H](OC(=O)c4ccccc4)[C@H]3OC(=O)c3ccccc3)c2c(N)n1 [4,8-Diamino-6H-6-imino-1(2′,3′,5′-tri-O-benzoyl-β-D-ribofuranosyl)imidazo[4,5-e][1,3]diazepine]
[1]
  GI50: 1.49 µM
  LC50: 5.55 µM
  TGI: 2.87 µM
[2]
  GI50: 3.18 µM
  TGI: 6.41 µM
  CC50: 19.2 µM
[3]
  GI50: 14.7 µM
  TGI: 31.6 µM
  CC50: 68.2 µM
[4]
  GI50: 13.9 µM
  TGI: 31.5 µM
  CC50: 71.4 µM
[5]
  GI50: 10.9 µM
  TGI: 23 µM
  CC50: 48.7 µM
[6]
  GI50: 5.5 µM
  LC50: 53.6 µM
  TGI: 19.4 µM
[7]
  GI50: 15.6 µM
  TGI: 33.4 µM
  CC50: 71.5 µM
[8]
  GI50: 5.77 µM
  TGI: 19.5 µM
  CC50: 50.8 µM
[9]
  GI50: 12.1 µM
  TGI: 26.8 µM
  CC50: 59.4 µM
[10]
  GI50: 1.91 µM
  TGI: 3.54 µM
  CC50: 6.54 µM
[11]
  GI50: 5.14 µM
  TGI: 29.5 µM
  CC50: > 100 µM
[12]
  GI50: 12.3 µM
  LC50 (concentration killing 50% of cells): 50.4 µM
  TGI: 24.9 µM
[13]
  GI50: 8.79 µM
  TGI: 21.8 µM
  CC50: 49.1 µM
[14]
  GI50: 2.52 µM
  TGI: 8.42 µM
  CC50: 34.7 µM
[15]
  GI50: 13.8 µM
  TGI: 28 µM
  CC50: 57 µM
[16]
  GI50: 12.3 µM
  TGI: 27.7 µM
  CC50: 62.3 µM
[17]
  GI50: 7.64 µM
  LC50 (concentration for 50% net cell kill): 55.6 µM
  TGI: 22.7 µM
[18]
  GI50: 10.9 µM
  TGI: 23.5 µM
  CC50: 50.7 µM
[19]
  GI50: 2.53 µM
  TGI: 7.42 µM
  CC50: > 100 µM
[20]
  GI50: 3.04 µM
  LC50: 33.8 µM
  TGI: 8.07 µM
[21]
  GI50: 6.03 µM
  TGI: 19.6 µM
  CC50: 49.2 µM
[22]
  GI50: 6.44 µM
  TGI: 30 µM
  CC50: > 100 µM
[23]
  GI50: 10.4 µM
  LC50: 65.8 µM
  TGI: 26.2 µM
[24]
  GI50: 5 µM
  TGI: 22 µM
  CC50: 61.6 µM
[25]
  GI50: 6.89 µM
  TGI: 25.1 µM
  CC50: 72.4 µM
[26]
  GI50: 10.9 µM
  TGI: 29.6 µM
  CC50: 80.4 µM
[27]
  GI50: 5.88 µM
  TGI: 21.7 µM
  CC50: 58.6 µM
[28]
  GI50: 16.3 µM
  TGI: 30.5 µM
  CC50: 57 µM
[29]
  GI50: 0.125 µM
  TGI: 1.84 µM
  CC50: 6.4 µM
